Experimental data from PubChem BioAssay AID330 (DTP/NCI, 2004).
“And” between values parts separate entries of the source, which are not always exact repeats. Equal values may be shown once. Inconclusive results and toxic doses are left out. Peptide text beside a SMILES is read from it. * marks the point of attachment. Boc = CC(C)(C)OC(=O)*; NHNH2 = NN*

Tested on: P388 leukemia ip, CD2F1 mice, survival T/C
Experiment: NCI In Vivo Anticancer Drug Screen. Data for tumor model P388 Leukemia (intraperitoneal) in CD2F1 (CDF1) mice
Settings: endpoint: median survival time, higher = longer survival
Summary of the method: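 Mice carrying the transplanted tumor received test compound or vehicle. Survival was recorded in each group, and the value is the treated-group measurement divided by that of the vehicle-treated control group.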

[1] = dose: 100.0 mg/kg/injection, schedule: Q01DX009 (ip), vehicle: Klucel (hydroxypropylcellulose) (HPC)
[2] = dose: 6.25 mg/kg/injection, schedule: Q04DX003 (ip), vehicle: saline with Tween-80
[3] = dose: 60.0 mg/kg/injection, schedule: Q01DX005 (ip), vehicle: Klucel (hydroxypropylcellulose) (HPC)
[4] = dose: 120.0 mg/kg/injection, schedule: Q01DX005 (ip), vehicle: Klucel (hydroxypropylcellulose) (HPC)
[5] = dose: 240.0 mg/kg/injection, schedule: Q01DX005 (ip), vehicle: Klucel (hydroxypropylcellulose) (HPC)

SMILES: CC(C)CC(NC(=O)C(Cc1c[nH]c2ccccc12)NC(=O)OC(C)(C)C)C(=O)NN (stereo not drawn) (Boc-Trp-Leu-NHNH2; configuration not given here)
- T/C (dose: 12.5 mg/kg/injection, schedule: Q01DX009 (ip), vehicle: other): 100 % of control
- T/C (dose: 25.0 mg/kg/injection, schedule: Q01DX009 (ip), vehicle: other): 94 % of control
- T/C (dose: 50.0 mg/kg/injection, schedule: Q01DX009 (ip), vehicle: other): 97 % of control
- T/C (dose: 100.0 mg/kg/injection, schedule: Q01DX009 (ip), vehicle: other): 105 % of control and 110 % of control

SMILES: CCN(CC)CCNc1ccc(C)c2sc3c(O)cccc3c(=O)c12
- T/C (dose: 50.0 mg/kg/injection, schedule: Q01DX009 (ip), vehicle: saline with Tween-80): 104 % of control
- T/C (dose: 100.0 mg/kg/injection, schedule: Q01DX009 (ip), vehicle: saline with Tween-80): 100 % of control
- T/C (dose: 200.0 mg/kg/injection, schedule: Q01DX009 (ip), vehicle: saline with Tween-80): 104 % of control

SMILES: COC(=O)C1=NC(=S)N=C(C(=O)OC)C1(C)C(=O)c1ccccc1
- T/C (dose: 60.0 mg/kg/injection, schedule: Q01DX005 (ip), vehicle: saline): 95 % of control
- T/C (dose: 120.0 mg/kg/injection, schedule: Q01DX005 (ip), vehicle: saline): 95 % of control
- T/C (dose: 240.0 mg/kg/injection, schedule: Q01DX005 (ip), vehicle: saline): 118 % of control

SMILES: O=c1oc2ccccc2cc1Cc1cc2ccccc2oc1=O
- T/C (dose: 50.0 mg/kg/injection, schedule: Q01DX009 (ip), vehicle: Klucel (hydroxypropylcellulose) (HPC)): 103 % of control
- T/C [1]: 97 % of control

SMILES: Cc1cc(Nc2ccc3c(c2)OCO3)c2cc3c(cc2n1)OCO3
- T/C (dose: 50.0 mg/kg/injection, schedule: Q01DX005 (ip), vehicle: Klucel (hydroxypropylcellulose) (HPC)): 105 % of control and 107 % of control
- T/C (dose: 100.0 mg/kg/injection, schedule: Q01DX005 (ip), vehicle: Klucel (hydroxypropylcellulose) (HPC)): 116 % of control
- T/C (dose: 200.0 mg/kg/injection, schedule: Q01DX005 (ip), vehicle: Klucel (hydroxypropylcellulose) (HPC)): 165 % of control and 178 % of control

SMILES: CCOC(=O)CCOc1ccccc1N(CCCl)CCCl
- T/C (dose: 3.13 mg/kg/injection, schedule: Q04DX003 (ip), vehicle: saline with Tween-80): 150 % of control
- T/C [2]: 163 % of control

SMILES: CC(C)C(NC(=O)C(N)CCC(=O)O)C(=O)O (stereo not drawn) (H-Glu-Val-OH; configuration not given here)
- T/C (dose: 50.0 mg/kg/injection, schedule: Q01DX005 (ip), vehicle: saline with Tween-80): 93 % of control
- T/C (dose: 100.0 mg/kg/injection, schedule: Q01DX005 (ip), vehicle: saline with Tween-80): 100 % of control
- T/C (dose: 200.0 mg/kg/injection, schedule: Q01DX005 (ip), vehicle: saline with Tween-80): 93 % of control

SMILES: ONC(=Nc1cccc2ccccc12)C(=Nc1cccc2ccccc12)NO
- T/C [3]: 99 % of control
- T/C [4]: 102 % of control
- T/C [5]: 103 % of control

SMILES: COC(=O)/C=C(\NC1CC(OC2C[C@](O)(C(C)=O)Cc3c(O)c4c(c(O)c32)C(=O)c2c(OC)cccc2C4=O)OC(C)C1O)C(=O)OC (some centres not stated)
- T/C [2]: 104 % of control
- T/C (dose: 12.5 mg/kg/injection, schedule: Q04DX003 (ip), vehicle: saline with Tween-80): 105 % of control and 115 % of control
- T/C (dose: 25.0 mg/kg/injection, schedule: Q04DX003 (ip), vehicle: saline with Tween-80): 121 % of control
- T/C (dose: 100.0 mg/kg/injection, schedule: Q04DX003 (ip), vehicle: saline with Tween-80): 121 % of control

SMILES: NS(=O)(=O)c1ccc(Nc2c3ccccc3nc3cc(Cl)ccc23)cc1
- T/C (dose: 6.25 mg/kg/injection, schedule: Q01DX009 (ip), vehicle: Klucel (hydroxypropylcellulose) (HPC)): 98 % of control
- T/C (dose: 12.5 mg/kg/injection, schedule: Q01DX009 (ip), vehicle: Klucel (hydroxypropylcellulose) (HPC)): 98 % of control
- T/C (dose: 25.0 mg/kg/injection, schedule: Q01DX009 (ip), vehicle: Klucel (hydroxypropylcellulose) (HPC)): 90 % of control
- T/C [1]: 86 % of control

SMILES: CC(=O)OCC(=O)[C@@]1(O)CC[C@H]2[C@@H]3CCC4=CC(=O)[C@H](C)C[C@]4(C)[C@@]3(F)[C@@H](O)C[C@@]21C
- T/C (dose: 100.0 mg/kg/injection, schedule: Q04DX003 (ip), vehicle: Klucel (hydroxypropylcellulose) (HPC)): 100 % of control
- T/C (dose: 200.0 mg/kg/injection, schedule: Q04DX003 (ip), vehicle: Klucel (hydroxypropylcellulose) (HPC)): 110 % of control

SMILES: CC(/C=N\Nc1ccc(C(=O)O)cc1)=N/NC(=O)CC#N
- T/C (dose: 50.0 mg/kg/injection, schedule: Q01DX009 (ip), vehicle: saline): 88 % of control
- T/C (dose: 100.0 mg/kg/injection, schedule: Q01DX009 (ip), vehicle: saline): 86 % of control
- T/C (dose: 200.0 mg/kg/injection, schedule: Q01DX009 (ip), vehicle: saline): 88 % of control

SMILES: Cc1c(O)c(=O)ccn1CCCl
- T/C (dose: 50.0 mg/kg/injection, schedule: Q01DX005 (ip), vehicle: saline): 104 % of control and 107 % of control
- T/C (dose: 100.0 mg/kg/injection, schedule: Q01DX005 (ip), vehicle: saline): 106 % of control and 107 % of control
- T/C (dose: 200.0 mg/kg/injection, schedule: Q01DX005 (ip), vehicle: saline): 109 % of control and 116 % of control

SMILES: O=C(Nc1ccc(Cl)c(Cl)c1)/C(Cl)=C1/Sc2ccccc2NC1=O
- T/C (dose: 60.0 mg/kg/injection, schedule: Q01DX005 (ip), vehicle: saline with Tween-80): 105 % of control
- T/C (dose: 120.0 mg/kg/injection, schedule: Q01DX005 (ip), vehicle: saline with Tween-80): 105 % of control
- T/C (dose: 240.0 mg/kg/injection, schedule: Q01DX005 (ip), vehicle: saline with Tween-80): 105 % of control

SMILES: CN1CCN(CN2C(=O)NC(c3ccccc3)(c3ccccc3)C2=O)CC1
- T/C [3]: 90 % of control
- T/C [4]: 107 % of control
- T/C [5]: 98 % of control

SMILES: CC1CCCCN1C=C1C(=O)OC(C)(C)OC1=O (configuration not stated)
- T/C [3]: 95 % of control
- T/C [4]: 96 % of control
